Where two headings read alike, the source gives them in different places.

Assay [1] has as its target T1, RORγt (Homo sapiens, UniProt P51449).
T1 sequence (P51449 1-497 isoform P51449-2): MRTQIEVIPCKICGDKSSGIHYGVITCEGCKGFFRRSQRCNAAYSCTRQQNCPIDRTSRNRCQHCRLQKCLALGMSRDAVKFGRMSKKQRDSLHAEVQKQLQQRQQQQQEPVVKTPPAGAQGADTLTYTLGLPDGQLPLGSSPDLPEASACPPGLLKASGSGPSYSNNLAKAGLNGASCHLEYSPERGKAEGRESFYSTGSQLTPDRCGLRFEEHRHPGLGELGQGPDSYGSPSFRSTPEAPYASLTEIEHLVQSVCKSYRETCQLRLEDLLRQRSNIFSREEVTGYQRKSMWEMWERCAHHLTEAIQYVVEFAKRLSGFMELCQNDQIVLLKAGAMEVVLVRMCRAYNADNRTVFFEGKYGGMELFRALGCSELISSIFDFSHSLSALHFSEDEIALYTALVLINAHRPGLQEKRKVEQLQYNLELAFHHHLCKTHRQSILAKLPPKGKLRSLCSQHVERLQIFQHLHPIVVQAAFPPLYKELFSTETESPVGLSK
As to the kind of experiment: RORγt binding test using fluorescent-labeled synthetic ligand (TR-FRET). The conditions noted are these: read-out: binding inhibitory rate of fluorescent-labeled synthetic ligand to RORγt at test compound 1 μM.

Assay [2] deals with T1, RORγt. As to the kind of experiment: Cofactor recruitment test (Alpha Screen, biotinylated SRC-1 peptide). In kind it is biochemical. The conditions noted are these: read-out: signal value inhibitory rate at test compound 1 μM. As for the experimental part:
Cofactor Recruitment Test
Cofactor recruitment test was performed by Alpha Screen (Histidine Detection Kit, PerkinElmer) method. First, a test compound was diluted with an assay buffer (50 mM Tris-HCl (pH 7.5), 50 mM KCl, 1 mM DTT, 0.1% BSA) and added to a 384 well plate by 5 μL. […] The mixture was stood in a dark place for 1 hr, and the signal value was measured by Envision (PerkinElmer).

Assay [3] addresses T1, RORγt. Kind of assay: Jurkat reporter test (human IL-17 ROR response element luciferase, RORγt vector). The format is cell-based. The conditions noted are these: test compound 3 μM, Jurkat cells, read-out: luminescence level inhibitory rate at test compound 3 μM. The essentials: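 Jurkat cells were electroporated (1350 V, 10 ms, 3 pulses) with reporter constructs, then cultured overnight with compound in RPMI containing 10% lipid-reduced FCS, 10 mM HEPES pH 7.5 and 5 μM lovastatin. Luciferase was quantified by Bright-Glo luminescence after 10 min at room temperature.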

Assay [4] relates to IL-17 production in human blood. Kind of assay: Effect on IL-17 production in human blood. The format is cell-based. The conditions noted are these: 72 h; 10 μM test compound; human peripheral blood, IL-23 and Dynabeads stimulation, 3 days; read-out: percent inhibition at 10 μM (IL-17 production). How it is done:
Effect on IL-17 Production in Human Blood
The inhibitory effect of the test compound on IL-17 production in human blood was evaluated as follows. First, 150 μL of peripheral blood collected from healthy individuals using heparinized vacuum blood collection tubes was dispensed into each well of a 96-well plate (Corning), and 45 μL of RPMI 1640 medium (Gibco) containing 10% fetal bovine serum (FBS, Hyclone) and 30 μL of the test compound diluted with the medium were added to each well. The plate was then cultured for 30 min at 37° C. The cells were subsequently stimulated by adding 30 μL of 100 ng/mL human IL-23 (R&D) and 45 μL of Dynabeads Human (Invitrogen) to each well and culturing the plate for 3 days at 37° C. In wells without stimulation, 75 μL of RPMI 1640 medium containing 10% FBS was added instead of the IL-23 and Dynabeads solution. After culturing for 3 days, the culture supernatant was collected, and the amount of IL-17 in the supernatant was measured using an IL-17 ELISA kit (R&D).
The results (percent inhibition of IL-17 production with 10 μM of the test compound) measured by the above-mentioned method are shown in Table 8.

The test system of assay [5] is IL-23-induced mouse psoriasis model. As to the kind of experiment: IL-23-induced mouse psoriasis model. In kind it is in vivo. The conditions noted are these: Balb/c mice, versus the negative control group; for percent inhibition of IL-17A expression: ear tissue. As for the experimental part: Effect in an IL-23-Induced Mouse Psoriasis Model
Mouse IL-23 (500 ng/15 μL, R&D) or PBS (15 μL, negative control group) was administered intradermally in the ear of Balb/c mice (Charles River Japan, male, 7 weeks old) 5 times every other days. Seven hr after IL-23 administration at 8 days after the initial administration (final administration), the mice were anesthetized with isoflurane, and ear thickness was measured with calipers. After the ear thickness was measured, the ear was resected, tissue 8 mm in diameter was punched from an area centering on the IL-23 injection site, and the tissue was weighed. The punched ear tissue was cut in half, and one half was immersion-fixed in 10% neutral buffer formalin solution for use in histopathological evaluation. The other half was immersed in RNAlater (QIAGEN) for at least 18 hr for use in an evaluation of the IL-17A mRNA expression level. The test compound was suspended in 0.5% methylcellulose and administered orally twice daily on consecutive days from 30 min before the initial IL-23 administration to 30 min before the final IL-23 administration.
The change in ear thickness in this model was evaluated by calculating the difference in measured thickness between before IL-23 administration and 7 hr after the final IL-23 administration. In addition, the formalin-fixed tissue was embedded and sectioned, then stained with hematoxylin-eosin. The degree of acanthosis was then evaluated qualitatively by microscopy (classified with a score of 0 to 4). RNA extraction from the ear tissue and quantitative PCR were performed as follows. As described above, ear tissue treated with RNAlater (QIAGEN) was homogenized in 350 μL of RLT buffer (RNeasy mini kit, QIAGEN) and treated (55° C., 10 min) with Proteinase K (QIAGEN). Total RNA was then extracted according to the RNeasy mini kit protocol. The RNA thus obtained was reverse transcribed into cDNA using the High-Capacity RNA-to-cDNA kit (Applied Biosystems), and the expression of each gene was measured by real-time PCR (Viia7™, Applied Biosystems). The PCR buffer used was TaqMan Fast Advanced Master Mix (Applied Biosystems), and TaqMan Gene Expression Assays (Applied Biosystems) Mm00439618_m1 (IL-17A) and 4352341E (β-actin) were used to detect the genes. The IL-17A gene expression level was normalized to the β-actin gene expression level, and the percent inhibition of IL-17A gene expression with the test compound was then calculated.
The results (percent inhibition of ear thickness, acanthosis score and IL-17A gene expression with oral administration of the test compound) measured by the above-mentioned method are shown in Table 10.

The next assay has as its system IL-17A gene expression. As to the kind of experiment: Effect on IL-23-induced cytokine expression in mice. In kind it is in vivo, mouse. The conditions noted are these: 10 mg/kg oral, 30 min before and 8 hr after IL-23; ear of Balb/c mice; versus the negative control group. As for the experimental part: Effect on IL-23-Induced Cytokine Expression in Mice
A mouse IL-23 solution (500 ng/10 μL, prepared by Takeda Pharmaceutical Company Limited) or PBS (10 μL, negative control group) was administered intradermally in the ear of Balb/c mice (Charles River Japan, male, 7 weeks old). Twenty-four hr after administration, the ear was resected under isoflurane anesthesia. The test compound was suspended in 0.5% methylcellulose and administered orally 30 min before and 8 hr after IL-23 administration.
RNA extraction from the ear tissue and quantitative PCR were performed as follows. Specifically, ear tissue 5 mm in diameter was punched from an area of the resected ear centering on the IL-23 injection site, and the tissue was immersed in RNAlater (QIAGEN) for at least 18 hr. The RNAlater-treated ear tissue was homogenized in 350 μL of RLT buffer (RNeasy mini kit, QIAGEN) and treated (55° C., 10 min) with Proteinase K (QIAGEN). Total RNA was then extracted according to the RNeasy mini kit protocol. The RNA thus obtained was then reverse transcribed into cDNA using the High-Capacity RNA-to-cDNA kit (Applied Biosystems), and the amount of each gene expressions was measured by real-time PCR (Viia7™, Applied Biosystems). The PCR buffer used was TaqMan Fast Advanced Master Mix (Applied Biosystems), and TaqMan Gene Expression Assays (Applied Biosystems) Mm00439618_m1 (IL-17A) and 4352341E (β-actin) were used for each gene detection. The IL-17A gene expression level was normalized to the β-actin gene expression level, and the percent inhibition of IL-17A gene expression with the test compound was then calculated.
The results (percent inhibition of IL-17A gene expression with oral administration of the test compound) measured by the above-mentioned method are shown in Table 9.

In the case of `COc1ccc2c(n1)CCN(C(=O)[C@H]1C[C@@H]1CC(=O)O)[C@H]2C(=O)Nc1cc(F)c2c(c1)CCC2(C)C` [Example 6, ((1R,2S)-2-(((5R)-5-((7-fluoro-1,1-dimethyl-2,3-dihydro-1H-inden-5-yl)carbamoyl)-2-methoxy-7,8-dihydro-1,6-naphthyridin-6(5H)-yl)carbonyl)cyclopropyl)acetic acid], the inhibition at 1 µM at RORγt [1] (test compound 1 μM) came out at 102%. Further, the inhibition at 1 µM on RORγt [2] (test compound 1 μM) came out at 54%. Further, on RORγt [3] (Jurkat), the inhibition at 3 µM was determined as 97%. The inhibition at 10 µM in assay [4] came out at 86.6%. In assay [5] (10 mg/kg oral twice daily), the “percent inhibition of acanthosis score” value worked out at 39%, the “percent inhibition of ear thickness” value was 64% and the “percent inhibition of IL-17A expression” value amounted to 111%.
On to `COc1ccc2c(n1)CCN(C(=O)[C@H]1C[C@@H](C(=O)O)C1)[C@H]2C(=O)Nc1cc(F)c2c(c1)CCC2(C)C` [Example 10, cis-3-(((5R)-5-((7-fluoro-1,1-dimethyl-2,3-dihydro-1H-inden-5-yl)carbamoyl)-2-methoxy-7,8-dihydro-1,6-naphthyridin-6(5H)-yl)carbonyl)cyclobutanecarboxylic acid], for which the inhibition at 10 µM in assay [4] came out at 89.7%. The “percent inhibition of IL-17A gene expression” value in the assay with IL-17A gene expression is 87%. Further, in assay [5] (1 mg/kg oral twice daily), the “percent inhibition of acanthosis score” value was determined as 47%, the “percent inhibition of ear thickness” value came out at 52% and the “percent inhibition of IL-17A expression” value came out at 91%.
Consider `COCc1ccc2c(c1)CCN(C(=O)[C@H]1C[C@@H](CC(=O)O)C1)[C@H]2C(=O)Nc1cc(F)c2c(c1)CCC2(C)C` [Example 19, (cis-3-(((1R)-1-((7-fluoro-1,1-dimethyl-2,3-dihydro-1H-inden-5-yl)carbamoyl)-6-(methoxymethyl)-3,4-dihydroisoquinolin-2(1H)-yl)carbonyl)cyclobutyl)acetic acid], for which the inhibition at 1 µM on RORγt [1] (test compound 1 μM) stood at 101%. The inhibition at 1 µM on RORγt [2] (test compound 1 μM) was 82%. In addition, the inhibition at 3 µM at RORγt [3] (Jurkat) was determined as 99%. Further, the inhibition at 10 µM in assay [4] came to 94.1%. Besides, in assay [5] (10 mg/kg oral twice daily), the “percent inhibition of acanthosis score” value was 29%, the “percent inhibition of ear thickness” value is 40% and the “percent inhibition of IL-17A expression” value is 94%.
Consider `COc1ccc2c(c1)CCN(C(=O)[C@H]1C[C@@H](CC(=O)O)C1)[C@H]2C(=O)Nc1ccc([Si](C)(C)C)c(F)c1` [Example 33, (cis-3-(((1R)-1-((3-fluoro-4-(trimethylsilyl)phenyl)carbamoyl)-6-methoxy-3,4-dihydroisoquinolin-2(1H)-yl)carbonyl)cyclobutyl)acetic acid], for which the inhibition at 1 µM at RORγt [1] turned out to be 102%; at RORγt [2], 92%. In addition, the inhibition at 3 µM at RORγt [3] is 102%. Also, the inhibition at 10 µM in assay [4] was 78.5%. Besides, the “percent inhibition of IL-17A gene expression” value in the assay on IL-17A gene expression is reported as 94%.

Values taken from patent publication US10093629B2, “Heterocyclic compounds and their use as retinoid-related orphan receptor (ROR) gamma-T inhibitors” (Takeda Pharmaceutical Company Limited, priority 2014, dated 2018).
